According to patent EP2077855B1, “THERAPEUTIC USE OF GBA2” (Yildiz, Dr. med., Yildiz, priority 2006, dated 2008):
Several values for one entry are separate records, joined by “and”; a condition that tells them apart may be missing. Equal entries are not always repeated.

Experiments:
[1] = molecular target: T1, recombinant GBA2 produced in insect cells (His-tagged isolated enzyme) (Homo sapiens, UniProt Q9HCG7); test: Glucosidase activity of recombinant GBA2 produced in insect cells upon addition of test compounds; format: biochemical; design: enzyme activity: unit not given here; settings: insect cell produced recombinant GBA2, incubation time 15; for mean value: mean counts
T1 construct: His tag; made in house; host or cells: insect cells
T1 sequence (Q9HCG7 1-927): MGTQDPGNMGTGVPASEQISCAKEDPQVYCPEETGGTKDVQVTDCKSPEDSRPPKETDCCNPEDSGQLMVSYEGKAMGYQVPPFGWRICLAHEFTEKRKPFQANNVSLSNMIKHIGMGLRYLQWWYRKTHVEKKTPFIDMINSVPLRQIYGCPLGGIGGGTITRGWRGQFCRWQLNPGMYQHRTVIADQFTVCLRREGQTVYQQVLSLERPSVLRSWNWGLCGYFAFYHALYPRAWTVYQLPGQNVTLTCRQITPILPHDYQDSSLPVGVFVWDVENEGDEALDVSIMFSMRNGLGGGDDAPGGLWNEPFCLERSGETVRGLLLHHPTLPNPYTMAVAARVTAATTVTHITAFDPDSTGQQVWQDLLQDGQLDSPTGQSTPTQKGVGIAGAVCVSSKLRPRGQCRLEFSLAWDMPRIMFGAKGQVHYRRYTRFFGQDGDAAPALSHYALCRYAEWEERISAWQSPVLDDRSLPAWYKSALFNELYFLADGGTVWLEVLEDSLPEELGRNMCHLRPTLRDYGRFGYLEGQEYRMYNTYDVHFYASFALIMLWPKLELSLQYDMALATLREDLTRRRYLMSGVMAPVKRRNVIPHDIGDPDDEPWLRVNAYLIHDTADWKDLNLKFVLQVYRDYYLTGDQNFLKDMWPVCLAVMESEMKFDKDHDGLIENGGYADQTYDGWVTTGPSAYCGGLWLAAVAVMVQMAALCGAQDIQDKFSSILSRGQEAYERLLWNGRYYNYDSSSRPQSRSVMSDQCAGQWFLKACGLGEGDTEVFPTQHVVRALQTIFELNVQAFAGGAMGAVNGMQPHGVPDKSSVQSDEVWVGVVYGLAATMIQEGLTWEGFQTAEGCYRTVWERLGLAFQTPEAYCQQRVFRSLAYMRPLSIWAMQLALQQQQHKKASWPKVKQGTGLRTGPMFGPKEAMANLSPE
Experimental: (§1) Following the method for measurement of glucosidase activity described in ((Matern, H. et al., J. Biol. Chem. 272:11,261-11,267 (1997), the effect of several test compounds (like bivalent cations and detergents) on the glucosidase activity of recombinant GBA2 produced in insect cells (His-tagged isolated enzyme) and of human liver microsomes was compared. The glucosidase activity of human liver was tested in a microsomal preparation. The tested compounds were: cations including nickel, zinc, cobalt, manganese, calcium, magnesium and barium; detergents including Chaps, Triton X100, taurocholate, Brij58; and phospholipids including lyso-phosphatidylcholine, sphingomyelin, phosphatidylcholine, phosphatidyl-serine, phosphatidylethanolamine and phosphatidylinositol. The enzyme activity results for the recombinant GBA2 were similar or even better than the results for human liver microsomal GBA2 activity. Representative results are summarized in Table 5; the data for the remaining test compounds is not shown. Result: Expression of GBA2 in insect cells leads to recombinant GBA2 whose glucosidase activity is similar to or even higher than the glucosidase activity of human liver microsomes. Table 5: Glucosidase activity of microsomal human liver and GBA2 from insect cells upon addition of sphingomyelin (A, B) and cobalt (C, D). The microsomal preparations were diluted 1:8 with Chaps before use. Measurements were performed in duplicate or triplicate.

[2] = molecular target: T2, human liver microsomal GBA2 activity (Homo sapiens, UniProt Q9HCG7); test: Glucosidase activity of human liver microsomes upon addition of test compounds; format: biochemical; design: enzyme activity: unit not given here; settings: human liver microsomes diluted 1:8 with Chaps, incubation time 15; for mean value: mean counts
T2 construct: from tissue; host or cells: human liver microsomes
T2 sequence (Q9HCG7 1-927): T1 sequence (Q9HCG7 1-927)
Experimental: as §1

## sphingomyelin
[1]; sphingomyelin 0,3mM
  mean value: 674,56
  % of control: 104%
  counts: 675,57 and 673,54
  enzyme activity: 2,5788
[1]; sphingomyelin 0,15mM
  mean value: 591,95
  % of control: 89%
  counts: 579,66 and 604,24
  enzyme activity: 2,1969
[1]; sphingomyelin 0,75mM
  mean value: 537,54
  % of control: 79%
  counts: 541,76 and 533,32
  enzyme activity: 1,9454
[1]; sphingomyelin 3mM
  mean value: 652,37
  % of control: 100%
  counts: 699,42 and 605,31
  enzyme activity: 2,4762
[1]; sphingomyelin 6mM
  mean value: 493,49
  % of control: 70%
  counts: 473,49 and 513,48
  enzyme activity: 1,7418
[1]; sphingomyelin 12mM
  mean value: 510,93
  % of control: 74%
  counts: 489,65 and 532,21
  enzyme activity: 1,8224
[1]; sphingomyelin 1,5mM
  mean value: 643,44
  % of control: 98%
  counts: 630,13 and 656,75
  enzyme activity: 2,4349
[2]; sphingomyelin 0,3mM
  mean value: 195,30
  % of control: 68%
  counts: 187,68 and 202,92
  enzyme activity: 1,4089
[2]; sphingomyelin 0,15mM
  mean value: 206,72
  % of control: 78%
  counts: 215,51 and 197,93
  enzyme activity: 1,6200
[2]; sphingomyelin 0,75mM
  mean value: 206,21
  % of control: 78%
  counts: 206,90 and 205,52
  enzyme activity: 1,6106
[2]; sphingomyelin 3mM
  mean value: 214,01
  % of control: 85%
  counts: 225,57 and 202,45
  enzyme activity: 1,7548
[2]; sphingomyelin 6mM
  mean value: 208,40
  % of control: 80%
  counts: 207,54 and 209,26
  enzyme activity: 1,6511
[2]; sphingomyelin 12mM
  mean value: 195,24
  % of control: 68%
  counts: 189,25 and 201,23
  enzyme activity: 1,4077
[2]; sphingomyelin 1,5mM
  mean value: 201,66
  % of control: 74%
  counts: 207,84 and 195,48
  enzyme activity: 1,5264

## [Co+2] [cobalt]
[1]; cobalt 0,01mM
  % of control: 93%
  counts: 157,63 and 157,78
  enzyme activity: 0,1288
  mean value: 157,71
[1]; cobalt 0,1mM
  % of control: 115%
  counts: 161,62 and 167,45
  enzyme activity: 0,1604
  mean value: 164,54
[1]; cobalt 0,05mM
  % of control: 117%
  counts: 167,53 and 152,62 and 174,62
  enzyme activity: 0,1622
  mean value: 164,92
[1]; cobalt 0,5mM
  % of control: 273%
  counts: 206,30 and 217,85
  enzyme activity: 0,3802
  mean value: 212,08
[1]; cobalt 1mM
  % of control: 360%
  counts: 237,74 and 260,51 and 216,07
  enzyme activity: 0,5005
  mean value: 238,11
[1]; cobalt 5mM
  % of control: 97%
  counts: 208,68 and 319,94
  enzyme activity: 0,6216
  mean value: 264,31
[2]; cobalt 0,01mM
  % of control: 87%
  counts: 180,77 and 193,04 and 191,08
  enzyme activity: 1,0961
  mean value: 188,30
[2]; cobalt 0,05mM
  % of control: 140%
  counts: 223,91 and 223,75 and 225,71
  enzyme activity: 1,7647
  mean value: 224,46
[2]; cobalt 0,001mM
  % of control: 81%
  enzyme activity: 1,0240
  mean value: 84,391
[2]; cobalt 1mM
  % of control: 155%
  counts: 234,69 and 233,72 and 236,26
  enzyme activity: 1,9576
  mean value: 234,89
[2]; cobalt 0,005mM
  % of control: 84%
  counts: 192,98 and 191,68 and 174,52
  enzyme activity: 1,0610
  mean value: 186,39
[2]; cobalt 5mM
  % of control: 163%
  counts: 233,59 and 235,10 and 251,13
  enzyme activity: 2,0510
  mean value: 239,941
